Assay results from publication PMC10375533, “Preference of Bacterial Rhamnosyltransferases for 6-Deoxysugars Reveals a Strategy To Deplete O-Antigens” (Journal of the American Chemical Society, 2023).
“Also recorded” adds a separate entry of the source. Like-named read-outs stand apart in the source and are kept apart here.

How the values were obtained:
T. thermophilus RfbF = T. thermophilus RfbF (Thermus thermophilus, UniProt Q72KB9); assay: Isothermal titration calorimetry (ITC) binding measurements with RfbF; settings: for ΔG / ΔH / ΔS / KD / binding to RfbF by ITC (in words) / Kd / n-value (stoichiometry): ITC; for fold increase in KD relative to dTDP-β-L-Rha: ITC with RfbF, compared to the native donor; for n-value (stoichiometry): ligands with sigmoidal binding curves, SD in parentheses, n = 3
E. coli WbbL [1] = molecular target: T1, E. coli WbbL (Escherichia coli, UniProt P36667); assay: In vitro inhibition assay of E. coli WbbL with monosaccharides and compound 2; type: biochemical; settings: 5 mM inhibitor, 250 µM dTDP-β-L-Rha, 1 mM GlcNAc-PP-undecaprenol, 8 min
Protocol: Primers were purchased from Invitrogen and sequencing was completed by GENEWIZ (Azenta) or EtonBio. Chemicals were purchased from Sigma Aldrich, CarboSynth, Fisher Scientific, and Cayman without further purification. 1H, 13C, and 31P NMR spectra were recorded on a Bruker Avance III 400, 500, or 600 MHz instrument. All spectra were calibrated using residual non-deuterated solvent as an internal reference and processed using MestReNova (authorized to NYU). Gel filtration purification and analyses was performing using at AKTA pure 15 L instrument (UNICORN™ software, GE Healthcare). HRMS analyses were acquired on an Agilent 6224 Accurate-Mass time-of-flight LC/MS (LC-TOF) spectrometer equipped with an electrospray ionization (ESI) source with an autosampler. GraphPad Prism software 9.0 was used for all plotting and data analysis unless otherwise noted. Statistical significance of grouped data was assessed using paired t-tests in Prism. For the IC50 calculation, data were fit in Prism using the equation log(inhibitor) versus response (three parameters): y = bottom + (top-bottom)/(1+10^(X-log IC50)) based on the assumption the Hill slope would be 1, as predicted by ITC results with n ~ 1 for donor ligands. Data was normalized to controls without enzyme and with no inhibitor added. Confidence intervals were calculated based on the standard error. 1M TEAB buffer was prepared by suspending triethylamine (1 mol, 139 mL) in water (700 mL) and passing carbon dioxide (from evaporated dry ice) through the mixture until the pH=7.5. The buffer was diluted to 1L and stored as a stock solution at 4 °C. Prior to use it was diluted to 50 mM in deionized H2O […]
Methods for protein and cellular biochemistry/bioinformatics used in this study.
Bioinformatic approach to identify Thermus thermophilus RfbF as a putative glycolipid RT.
The Carbohydrate-Active Enzymes Database (CAZy.org) was used to identify thermophilic organisms with annotated glycosyltransferases (GTs).11-12 Genes annotated as wbbL have been experimentally shown to encode dTDP-rhamnosyltransferases that transfer L-Rha onto N-acetyl--a-D-glucosamine-1-diphospholipid acceptors.13-14 In Shigella flexneri, the protein encoded by rfbF was noted to carry out the same biochemical activity as WbbL based on genetic and LPS analyses.15-16 Both E. coli WbbL and S. flexneri RfbF belong to the GT2 family. A CAZy search for rfbF and wbbL was performed in the genomes of Gram-negative extreme thermophiles, which […]
(GenBank: AAS80876.1), which had not yet been biochemically characterized. Protein ANalysis […]
(§1) thermodynamic values were evaluated using ITCRun software (TA Instruments) and fit with a […]
Specific activities were determined by modification of the protocol outlined by Li et al. […]

E. coli WbbL [2] = molecular target: T1, E. coli WbbL; assay: Specific activity assay of rhamnosyltransferase (HPLC, rSAP-coupled), E. coli WbbL membrane fraction; type: biochemical; settings: native donor dTDP-β-L-Rha, t = 1 h
Protocol: as §1
Specific activity assays for bacterial rhamnosyltransferases from different species.
Specific activities were determined by modification of the protocol outlined by Li et al.
Specifically, 0.155 mg/mL RfbF, 0.081 mg/mL E. coli WbbL, or 0.111 mg/mL Mtb WbbL were used to initiate the following reaction mixtures: 25 mM Tris-HCl pH 7.5, 1 mM GlcNAc-PP-lipid, 1 mM donor-substrate, 5 mM MgCl2, 1 U rSAP (1000 U/mL stock solution), 1% (v/v) Triton X-100, 5% (v/v) DMSO (for reactions containing C55, C20, C15 lipid) or MeOH (for reactions containing C35 lipid) in a total volume of 20 µL. […]
Consumption of NDP-sugar donors was monitored on reverse phase HPLC equipped with a Phenomenex 5 µm, 21.2 x 150 mm, NX-C18 Å Gemini column with solvent A (50 mM TEAB pH 8.0) and solvent B (acetonitrile) using the following linear gradient: 0% B (t = 0-5 min), 0-5% B (t = 5-25 min), 5-90% B (t = 25-35 min). Absorbance at wavelength (l) = 254 nm was monitored.
Consumption was quantified by integration of dTDP-sugar donors relative to the total amount of thymidine-containing products, which was then subtracted from the starting dTDP-sugar concentration at the t = 0 time point. […] Characterization of each reaction was monitored by scanning in the negative ion mode and analyzed using Agilent MassHunter […]

[3] = 25 °C, ligand titrated into 110 µM RfbF
[4] = 25 °C, ligand titrated into 110 µM RfbF, one-site model, spread = SD, triplicate
[5] = ligand titrated into 110 µM RfbF
[6] = KD, 25 °C, ligand titrated into 110 µM RfbF, one-site model, spread = SD, triplicate

Chain of T. thermophilus RfbF (Q72KB9 entry or part of it): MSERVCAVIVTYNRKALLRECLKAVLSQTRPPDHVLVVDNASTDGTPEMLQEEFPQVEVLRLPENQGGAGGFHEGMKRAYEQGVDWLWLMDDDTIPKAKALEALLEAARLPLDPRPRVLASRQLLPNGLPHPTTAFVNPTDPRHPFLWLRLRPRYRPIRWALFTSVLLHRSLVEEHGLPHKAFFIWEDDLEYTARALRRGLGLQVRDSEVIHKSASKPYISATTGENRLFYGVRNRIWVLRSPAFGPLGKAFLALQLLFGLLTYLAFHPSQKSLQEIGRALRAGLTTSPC
T1 sequence (P36667 whole entry, looked up): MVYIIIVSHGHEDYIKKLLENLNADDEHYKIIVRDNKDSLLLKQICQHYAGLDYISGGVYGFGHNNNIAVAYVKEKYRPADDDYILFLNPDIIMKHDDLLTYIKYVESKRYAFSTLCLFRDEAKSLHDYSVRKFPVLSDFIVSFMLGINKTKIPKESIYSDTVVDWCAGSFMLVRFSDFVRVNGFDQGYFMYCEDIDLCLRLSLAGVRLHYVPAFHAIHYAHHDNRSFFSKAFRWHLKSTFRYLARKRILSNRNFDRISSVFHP

CC1OC(OP(=O)(O)OP(=O)(O)OCC2OC(n3cnc4c(=O)[nH]c(N)nc43)C(O)C2O)C(O)C(O)C1O [GDP-β-L-Rha, GDP-β-L-rhamnose]
ΔG (T. thermophilus RfbF; [3]): N/B
ΔH (T. thermophilus RfbF; [3]): N/B
ΔS (T. thermophilus RfbF; [3]): N/B
KD (T. thermophilus RfbF; [4]): N/B
binding to RfbF by ITC (in words) (T. thermophilus RfbF; [5]): no measurable; also recorded: no binding

OC[C@@H]1OC(O)[C@H](O)[C@H](O)[C@H]1O (stereo partly drawn) [L-Man, L-Mannose, reference compound]
inhibition of E. coli WbbL (E. coli WbbL [1]): Lack of inhibition

CC1OC(OP(=O)(O)O)C(O)C(O)C1O [L-Rha-1-phosphate, L-Rhamnose-1-phosphate, reference compound]
Kd (T. thermophilus RfbF; 5-10 mM ligand titrated into 110 µM RfbF, read-out: KD (beyond measurable limit)): > 1000 µM

N[C@@H](CO)C(=O)O [Ser]
turnover as noncanonical acceptor with the native donor (E. coli WbbL [2]): no turnover

CC(=O)NC1C(OP(=O)(O)OP(=O)(O)OCC2OC(n3ccc(=O)[nH]c3=O)C(O)C2O)OC(CO)C(O)C1O [UDP-α-D-GlcNAc, UDP-a-N-acetyl-D-glucosamine, reference compound]
ΔG (T. thermophilus RfbF; [3]): N/B
ΔH (T. thermophilus RfbF; [3]): N/B
ΔS (T. thermophilus RfbF; [3]): N/B
KD (T. thermophilus RfbF; [4]): N/B
binding to RfbF by ITC (in words) (T. thermophilus RfbF; ligand titrated into 110 µM RfbF, listed as UDP-a-D-GlcNAc): no
binding to RfbF by ITC (in words) (T. thermophilus RfbF; ligand titrated into 110 µM RfbF, listed as UDP-α-GlcNAc): did not bind at μM concentrations
turnover as noncanonical acceptor with the native donor (E. coli WbbL [2]; listed as UDP-α-GlcNAc): no turnover; also recorded: not used as an acceptor

CC1OC(OP(=O)(O)OP(=O)(O)OCC2OC(n3ccc(=O)[nH]c3=O)C(O)C2O)C(O)C(O)C1O [UDP-β-L-Rha, UDP-β-L-rhamnose]
fold increase in KD relative to dTDP-β-L-Rha (T. thermophilus RfbF): ~4.5 fold
ΔG (T. thermophilus RfbF; [3]): 8.55 (3.65) kcal/mol
ΔH (T. thermophilus RfbF; [3]): -6.72 (1.01) kcal/mol
ΔS (T. thermophilus RfbF; [3]): -51.2 (14.7) cal/mol·K
n-value (stoichiometry) (T. thermophilus RfbF): 1.30 (0.28)
Kd (T. thermophilus RfbF; [6]): 36.1 ± 10.7 µM

Cc1cn([C@H]2C[C@H](O)[C@@H](COP(=O)(O)OP(=O)(O)O)O2)c(=O)[nH]c1=O [dTDP, reference compound]
binding to RfbF by ITC (in words) (T. thermophilus RfbF; [5]): no binding profile is observed; also recorded: did not bind

Cc1cn(C2CC(O)C(COP(=O)(O)OP(=O)(O)OC3OC(CO)C(O)C(O)C3O)O2)c(=O)[nH]c1=O [dTDP-α-D-Glc, dTDP-a-D-glucose, reference compound]
fold increase in KD relative to dTDP-β-L-Rha (T. thermophilus RfbF; listed as dTDP-α-Glc): ~75 fold
Kd (T. thermophilus RfbF; [6]): 637 ± 96 µM

Cc1cn(C2CC(O)C(COP(=O)(O)OP(=O)(O)OC3OC(C)C(O)C(O)C3O)O2)c(=O)[nH]c1=O [dTDP-α-L-Rha, dTDP-a-L-rhamnose]
ΔG (T. thermophilus RfbF; [3]): N/B
ΔH (T. thermophilus RfbF; [3]): N/B
ΔS (T. thermophilus RfbF; [3]): N/B
KD (T. thermophilus RfbF; [4]): N/B
binding to RfbF by ITC (in words) (T. thermophilus RfbF; [5]): no detectable binding
binding to RfbF by ITC (in words) (T. thermophilus RfbF; ligand titrated into 110 µM RfbF, listed as dTDP-a-L-Rha): no measurable

Cc1cn(C2CC(O)C(COP(=O)(O)OP(=O)(O)OC3OC(C)C(O)C(O)C3O)O2)c(=O)[nH]c1=O [dTDP-β-L-6dTal, dTDP-6-deoxy-β-L-talose]
ΔG (T. thermophilus RfbF; [3]): 0.415 (2.847) kcal/mol
ΔH (T. thermophilus RfbF; [3]): -8.17 (2.70) kcal/mol
ΔS (T. thermophilus RfbF; [3]): -28.8 (3.7) cal/mol·K
binding to RfbF by ITC (in words) (T. thermophilus RfbF; [5]): comparable affinity as the native substrate
n-value (stoichiometry) (T. thermophilus RfbF): 0.934 (0.028)
Kd (T. thermophilus RfbF; [6]): 16.5 µM

Cc1cn(C2CC(O)C(COP(=O)(O)OP(=O)(O)OC3OC(C)C(O)C(O)C3O)O2)c(=O)[nH]c1=O [dTDP-β-L-Fuc, dTDP-β-L-fucose]
fold increase in KD relative to dTDP-β-L-Rha (T. thermophilus RfbF): ~15 fold
Kd (T. thermophilus RfbF; [6]): 126 ± 1 µM

Cc1cn(C2CC(O)C(COP(=O)(O)OP(=O)(O)OC3OC(CO)C(O)C(O)C3O)O2)c(=O)[nH]c1=O [dTDP-β-L-Man, dTDP-β-L-mannose]
fold increase in KD relative to dTDP-β-L-Rha (T. thermophilus RfbF): 60 fold
Kd (T. thermophilus RfbF; [6]): 496 ± 56 µM

L-rhamnose [reference compound]
inhibition of E. coli WbbL (E. coli WbbL [1]): 38%
